Source: patent publication US20090023666A1, “Modulators of Hypoxia Inducible Factor-1 and Related Uses” (priority 2006, published 2009)
Entries after “also recorded” stand apart in the source; their conditions may differ. Like-named read-outs stand apart in the source and are kept apart here.

Key:
MES-SA = test: Anti-proliferative activity, MES-SA; assay type: cell-based; details: Homo sapiens, read-out: Anti-Proliferative activity IC50
Protocol: (§1) FIG. 8 is a graph depicting the mRNA levels of α-1 and α-3 isoforms quantitated by real time RT-PCR (TaqMan) using fluorescent labeled TaqMan probes. Anti-proliferation (IC50 values) activity of BNC4 on indicated cell lines was determined by MTS assay. Total alpha levels (al+a3) were plotted against (1/IC50) X100 values.

tumor cell lines = test: Anti-proliferative activity in tumor cell lines (panel); assay type: cell-based, human; details: for IC50: Homo sapiens, read-out: IC50 range over the tumor cell lines
Protocol: as §1

DU145 = test: Anti-proliferative activity, DU145; assay type: cell-based; details: Homo sapiens
Protocol: as §1

[1] = Pharmacokinetics following IP administration in mice; assay type: in vivo; details: for tlast / Tmax: i.p.; for half-life: read-out: t1/2 (terminal elimination half-life) (converted)
Protocol: FIG. 13 is a graph depicting the pharmacokinetic profiled of BNC4, BP228 and BP244 in mice. The compounds were administered by intraperitoneal (i.p) injection at 2.5 mg/kg and 5.0 mg/kg for BP228 and at 5.0 mg/kg for BNC4 and BP244. The plasma samples were collected at various time points and concentration of compounds was analyzed by LC-MS. Pharmacokinetic parameters are provided in Example 23.
The compounds were administered by intraperitoneal (i.p) injection at 2.5 mg/kg and 5.0 mg/kg for BP228 and at 5.0 mg/kg for BNC4 and BP244. The plasma samples were collected at various time points and concentration of compounds was analyzed by LC-MS.

[2] = tested on: HIF-1α sensitive A549 sentinel line; test: HIF-1α sensitive A549 sentinel line reporter activity (FACS); assay type: cell-based; details: 24 hours, 5 nM (FIG. 4)
Protocol: FIGS. 4A-4D are graphs depicting FACS analysis of beta-gal activity in an A549 sentinel line treated with 5 nM of BNC4 (FIG. 4A), BP228 (FIG. 4B), and BP244 (FIG. 4C) in comparison to vehicle only (shown as the shaded portion of the graph) for 24 hours. The graphs indicate frequency of cells (Y-axis) and intensity of fluorescence (X-axis) as measure of pathway activity. The bar chart (FIG. 4D) depicts the relative median fluorescent units of FACS curves.
By using the HIF-1α sensitive A549 sentinel line, the cell line was incubated with either BNC4, BP228 or BP244 for 24 hours and reporter activity was measured by FACS analysis.

PC3 = test: Anti-proliferative activity, PC3; assay type: cell-based; details: Homo sapiens
Protocol: as §1

CCRF-CEM = test: Anti-proliferative activity, CCRF-CEM; assay type: cell-based; details: Homo sapiens, read-out: Anti-Proliferative activity IC50
Protocol: as §1

HIF-1α and HIF-2α = test: Induction of HIF-1α and HIF-2α during hypoxia (Western blotting); assay type: cell-based; details: for HIF-1α and HIF-2α protein expression: Caki-1, A549, Panc-1, Hep3B cells, hypoxia (1% O2) 4 hours, BNC4 0.1 μM, BP228 and BP244 0.1 and 1.0 μM; for protein expression of HIF-1β, NIK, Hsp90, DR4, Bcl-2 and β-actin: same cells and treatment, specificity
Protocol: Caki-1 (renal cancer), A549 (lung cancer), Panc-1 (pancreatic cancer) and Hep3B (liver cancer) cells were treated with BNC4, BP228 and BP244 under hypoxic conditions. The cells were treated with indicated each compound for 4 hours under normoxic (N, 20% O2) or hypoxic (H, 1% O2) conditions. Expression of HIF-1α, HIF-1β and β-actin and other proteins was analyzed by Western blotting. The HIF-1α and HIF-2α protein levels increased in cells cultured under these conditions for 4 hours without any treatment. […] The inhibition was specific as levels of constitutively expressed HIF-1β were not affected by any of the drugs.

HT29 = test: Anti-proliferative activity, HT29; assay type: cell-based; details: Homo sapiens
Protocol: as §1

P388 = test: Anti-proliferative activity, P388; assay type: cell-based; details: Mus musculus
Protocol: as §1

MES-SA-DX5 = test: Anti-proliferative activity, MES-SA-DX5; assay type: cell-based; details: Homo sapiens
Protocol: as §1

RPMI-8226 = test: Anti-proliferative activity, RPMI-8226; assay type: cell-based; details: Homo sapiens
Protocol: as §1

A549 = test: cells; assay type: cell-based; details: Homo sapiens
Protocol: as §1

Caki-1 (CAKI) = test: cells; assay type: cell-based; details: Homo sapiens
Protocol: as §1

LnCaP = test: Anti-proliferative activity, LnCaP; assay type: cell-based; details: Homo sapiens, read-out: Anti-Proliferative activity IC50
Protocol: as §1

VEGF = test: Hypoxia induced VEGF secretion (ELISA); assay type: cell-based; details: hypoxic conditions, Hep3B, Caki-1 16 hours (FIG. 6)
Protocol: FIG. 6 is two graphs depicting the effect of BP228 and BP244 on secretion of VEGF. Caki-1 cells were treated with indicated compound and cultured under hypoxia for 16 hours. VEGF levels in conditioned medium were measured using an ELISA kit.
The decrease in HIF-1 correlated closely with declining levels of VEGF secretion. […] Caki-1 cells were treated with indicated compound and cultured under hypoxia for 16 hours. VEGF levels in conditioned medium were measured using an ELISA kit.

SNB-78 = test: Anti-proliferative activity, SNB-78; assay type: cell-based; details: Homo sapiens
Protocol: as §1

SNB-75 = test: Anti-proliferative activity, SNB-75; assay type: cell-based; details: Homo sapiens
Protocol: as §1

HOP-18 = test: Anti-proliferative activity, HOP-18; assay type: cell-based; details: Homo sapiens
Protocol: as §1

[3] = DU-145, read-out: Anti-Proliferative activity IC50
[4] = mouse, plasma, ip, 5 mg/kg, 5 mg/kg, read-out: tmax
[5] = PC-3, read-out: Anti-Proliferative activity IC50
[6] = HT-29, read-out: Anti-Proliferative activity IC50
[7] = P388, read-out: Anti-Proliferative activity IC50
[8] = MES-SA/Dx5, read-out: Anti-Proliferative activity IC50
[9] = RPMI-8226, read-out: Anti-Proliferative activity IC50
[10] = A549, read-out: Anti-Proliferative activity IC50
[11] = CAKI-1, read-out: Anti-Proliferative activity IC50
[12] = SNB-78, read-out: Anti-Proliferative activity IC50
[13] = SNB-75, read-out: Anti-Proliferative activity IC50
[14] = HOP-18, read-out: Anti-Proliferative activity IC50

Row | Structure (SMILES) | IC50 (MES-SA) | IC50 (tumor cell lines) | IC50 (DU145; [3]) | tlast ([1]; 5 mg/kg) | AUC ([1]; mouse, plasma, ip, 5 mg/kg) | Cmax ([1]; mouse, plasma, ip, 5 mg/kg) | Tmax [1, 4] | half-life ([1]; mouse, plasma, ip, 5 mg/kg) | reporter activity in A549 sentinel line [2] | IC50 (PC3; [5]) | IC50 (CCRF-CEM) | HIF-1α and HIF-2α protein expression (HIF-1α and HIF-2α) | protein expression of HIF-1β, NIK, Hsp90, DR4, Bcl-2 and β-actin (HIF-1α and HIF-2α) | IC50 (HT29; [6]) | IC50 (P388; [7]) | IC50 (MES-SA-DX5; [8]) | IC50 (RPMI-8226; [9]) | IC50 (A549; [10]) | IC50 (Caki-1 (CAKI); [11]) | VEGF secretion (VEGF) | also measured
1 | C[C@]12CC/C(=N\OCCN3CCCCC3)C=C1CC[C@@H]1[C@@H]2CC[C@]2(C)[C@@H](c3ccc(=O)oc3)CC[C@]12O [BP228] | 11.4 nM | 640 nM | 8.8 nM | 6 h | 2350 ng·h/mL | 1200 ng/mL | 4.98 min | 114 min | active in inhibiting the reporter activity | 6.2 nM | 7 nM | inhibition of hypoxia-mediated HIF-1α induction; also recorded: almost complete inhibition | no effect | 18.9 nM | > 1000 nM | 15.8 nM | 25.5 nM | 7.3 nM | 13 nM | Attenuate Hypoxia Induced VEGF Secretion | tlast ([1]; 2.5 mg/kg): 6 h; Tmax ([1]; 5 mg/kg, listed as BNC228, 5 mg/kg): 5 min; AUC ([1]; mouse, plasma, ip, 2.5 mg/kg): 1020 ng·h/mL; Cmax ([1]; mouse, plasma, ip, 2.5 mg/kg): 715 ng/mL; Tmax ([1]; mouse, plasma, ip, 2.5 mg/kg, 2.5 mg/kg, read-out: tmax): 10 min; half-life ([1]; mouse, plasma, ip, 2.5 mg/kg): 90 min; IC50 (LnCaP; LNCaP): 39.2 nM; IC50 (SNB-78; [12]): 15.9 nM; IC50 (SNB-75; [13]): 19.2 nM; IC50 (HOP-18; [14]): 18.9 nM
2 | C[C@@H]1O[C@@H](O[C@@H]2C=C3CC[C@@H]4[C@H](CC[C@]5(C)[C@@H](c6ccc(=O)oc6)CC[C@]45O)[C@@]3(C)CC2)[C@H](O)[C@H](O)[C@H]1N [BP244] | 8 nM | 5 to 14 nM | 6.7 nM | 24 h | 4630 ng·h/mL | 2120 ng/mL | 30 min | 270 min | active in inhibiting the reporter activity | 5.7 nM | 4.7 nM | inhibition of hypoxia-mediated HIF-1α induction; also recorded: almost complete inhibition | no effect | 8.2 nM | > 1000 nM | 13.5 nM | 10.7 nM | 4.8 nM | 8 nM | reduce VEGF secretion | IC50 (LnCaP; LNCaP): 13.8 nM; IC50 (SNB-78; [12]): 7.7 nM; IC50 (SNB-75; [13]): 12.9 nM; IC50 (HOP-18; [14]): 7.3 nM
3 | C[C@@H]1O[C@@H](O[C@@H]2C=C3CC[C@@H]4[C@H](CC[C@]5(C)[C@@H](c6ccc(=O)oc6)CC[C@]45O)[C@@]3(C)CC2)[C@H](O)[C@H](O)[C@H]1O [BNC4, proscillaridin, reference compound] |  |  |  | 6 h | 4570 ng·h/mL | 3610 ng/mL | 15 min | 48 min | active in inhibiting the reporter activity |  |  | inhibition of hypoxia-mediated HIF-1α induction; also recorded: almost complete inhibition | no effect |  |  |  |  |  |  | reduce VEGF secretion | IC50 (MES-SA; Uterine): 8.7 nM; IC50 (tumor cell lines; range over cell lines of Table 2): 418 nM; sensitivity of cell lines expressing very low levels of α-chain (tumor cell lines; SNB75 and RPMI-8226 compared with A549 or PC-3, MTS assay): very resistant; IC50 (DU145; DU-145, DU145, Prostate (AR-), read-out: Anti-Proliferative activity IC50): 6.2 nM; IC50 (PC3; PC-3, PC3, Prostate, read-out: Anti-Proliferative activity IC50): 4.1 nM; IC50 (CCRF-CEM; Leukemia): 6.3 nM; IC50 (HT29; HT-29, HT29, Colon, read-out: Anti-Proliferative activity IC50): 8.9 nM; IC50 (P388; P388, Leukemia, read-out: Anti-Proliferative activity IC50): > 1000 nM; IC50 (MES-SA-DX5; MES-SA-DX5, Uterine, read-out: Anti-Proliferative activity IC50): 11.6 nM; IC50 (RPMI-8226; RPMI-8226, Myeloma, read-out: Anti-Proliferative activity IC50): 18.2 nM; IC50 (A549; A549, NSCL, read-out: Anti-Proliferative activity IC50): 3.5 nM; IC50 (Caki-1 (CAKI); CAKI-1, CAKI, Renal, read-out: Anti-Proliferative activity IC50): 7.5 nM; IC50 (LnCaP; LnCaP, Prostate): 16.7 nM; IC50 (SNB-78; SNB-78, CNS, read-out: Anti-Proliferative activity IC50): 10.1 nM; IC50 (SNB-75; SNB-75, CNS, read-out: Anti-Proliferative activity IC50): 16.8 nM; IC50 (HOP-18; HOP-18, NSCL, read-out: Anti-Proliferative activity IC50): 9.2 nM
